In one assay the test system is C57Bl/6 wild-type mice. The assay can be described thus: Long-term memory test - inhibitory avoidance (IA). It is filed as in vivo, mouse. Conditions: 100 mg/kg oral single dose 20 min before training. As to the method: (§1) For pharmacodynamics (FIG. 4) and cognition (FIG. 6) experiments, adult male C57Bl/6J wild-type mice weighting 18-28 g (8 weeks of age) were used (Charles River). For ALS mouse models (FIG. 5), G93A SOD1 transgenic male and female mice on B6.SJL1-Gur/J background were used (Jackson Laboratory).
Animals were housed in groups of 3-5 in polypropylene cages (30×40×15 cm) with wire mesh top in a temperature (22±2° C.) and humidity (55±15%) controlled environment on a 12 hour light cycle (07.00-19.00 h lights on), except after surgeries when animal were housed individually. The samples (Vehicle or compounds of the invention) were administered per os (gavage) in a solution made of water supplemented with 0.4% hydroxypropyl methylcellulose (HPMC) Methocel 4KM (w/v) and 0.25% Tween-20 (v/v), as previously described (Thackaberry et al., 2010, Toxicol Sci., 117(2):485-92). Concentrations of the compounds tested ranged from 10 to 100 mg/kg.
IA test is a well-established memory paradigm in rodents that measures contextual memory associated with a mild electrical footshock in a specific context (the dark compartment of the IA chamber). Groups of 8-week old C57Bl/6 wild-type […] mice were tested. Each mouse was handled for 5 minutes per day for at least 4 consecutive days to reduce animal's stress due to experimenter's presence/manipulation during test days. Inhibitory avoidance was carried out in an IA chamber (MedAssociates) that consists in a rectangular Perspex box divided into a safe and a shock compartment separated by an automatically operated sliding door. The safe compartment is white and illuminated while the shock compartment is black and dark. Mice were trained for IA 20 min after oral administration of the drug or vehicle. During training, mice were placed into the safe compartment with their heads facing away from the door. […] Memory retention was measured at 24 h or 3 weeks after training by placing the mouse back into the lit compartment and recording its latency (in seconds) to enter the dark compartment. […]

The subject of assay [1] is G93A SOD1 mouse model of ALS. The assay can be described thus: SOD1 G93A mouse ALS model - survival. It is filed as in vivo. Conditions: 10 mg/kg orally every day from post-natal day 30 to final stage, G93A SOD1 mice, vs vehicle. Here is the method: as §1
(§2) Animals were housed in groups of 3-5 in polypropylene cages (30×40×15 cm) with wire mesh top in a temperature (22±2° C.) and humidity (55±15%) controlled environment on a 12 hour light cycle (07.00-19.00 h lights on), except after surgeries when animal were housed individually. […]
(§3) Transgenic mice on B6.SJL1-Gur/J background overexpressing the human mutated gene G93A SOD1 were used. […] F1 pups were genotyped after ear punching at weaning, using quantitative PCR (qPCR), which allowed determining the number of SOD1 copies in each mouse.
(§4) To test for the potential therapeutic effect of the administered compound, SOD1 mice were given orally the compound of the invention (10 mg/kg) or vehicle every day from post-natal day 30 (weaning) throughout their entire life. […] Each mouse's weight was recorded every day throughout the entire treatment, while neuromuscular function was measured once a week. […]

The subject of assay [2] is primary astrocytes. Briefly: MTT mitochondrial activity assay in astrocytes. Type of assay: cell-based, mouse. The settings on record: 24 h, maximum concentration (200 μM). Here is the method:
Primary cultures of cerebrocortical astrocytes were obtained from 1 to 2-day-old OF1 mouse pups (Charles River). Briefly, cortices were isolated and minced in small pieces under a dissecting microscope. The cells were incubated for 30 min at 37° C. in a solution containing 20 U/ml papain, 1 mM L-cysteine and 10 kU/ml DNase I. After dissociation, papain activity was stopped by the addition of fetal calf serum (FCS). Single-cell suspension was then obtained by mechanical dissociation, which consisted in cells trituration in a DMEM D7777 medium supplemented with 44 mm NaHCO3, 10 ml/L antibiotic/antimycotic solution and 10% FCS. The cells were seeded at an average density of 6×10^4 cells/cm^2 on poly-D-lysine-coated 96- or 12-well culture plates, depending on their use, and grown in DMEM D7777 medium supplemented with 44 mm NaHCO3, 10 ml/L antibiotic/antimycotic solution and 10% FCS at 37° C. in a humidified atmosphere containing 5% CO2/95% air. Culture medium was renewed twice a week. Cells were stimulated and harvested between DIV14 and DIV17, when confluence and cell growth were optimal.
To monitor mitochondrial activity in astrocytes, which is linked to the metabolic process of glycolysis and production of lactate, astrocytes in 96-well plates were stimulated for 24 h (37° C. 5% CO2/95% air) with the compounds of the invention ranging from 0.2 to 200 μM. After stimulation, 5 mg/ml thiazol blue tetrazolium bromide (MTT) in D5030 medium complemented with 5 mM D-glucose and 44 mM sodium bicarbonate (pH 7.2) was added to each well, and cells were incubated for 4 h at 37° C. (5% CO2). The medium was then removed and the amount of reduced MTT, i.e formazan, solubilized in DMSO (50 μl/well) was determined using a spectrophotometer (absorbance of 570 nm).
The mitochondrial activity in primary astrocytes treated with Compounds (2) to (4) at concentrations ranging from 1 nM to 200 μM. After 24 h, mitochondrial activity was monitored in MTT colorimetric assay as described above (FIG. 3).
A general note: Formazan colour is commonly taken as a measure of viable cells.

The subject of assay [3] is primary astrocytes. Briefly: Intracellular glycogen quantification in astrocytes. Conditions: 10 μM, 3 h, vs vehicle. Type of assay: cell-based, mouse. As to the method: (§5) Primary cultures of cerebrocortical astrocytes were obtained from 1 to 2-day-old OF1 mouse pups (Charles River). Briefly, cortices were isolated and minced in small pieces under a dissecting microscope. The cells were incubated for 30 min at 37° C. in a solution containing 20 U/ml papain, 1 mM L-cysteine and 10 kU/ml DNase I. After dissociation, papain activity was stopped by the addition of fetal calf serum (FCS). Single-cell suspension was then obtained by mechanical dissociation, which consisted in cells trituration in a DMEM D7777 medium supplemented with 44 mm NaHCO3, 10 ml/L antibiotic/antimycotic solution and 10% FCS. […]
Astrocytes grown on 12-well plates were used for intracellular glycogen quantifications. […]
First, the amount of proteins in each sample was quantified to assess whether harvested astrocytes from primary cell cultures yielded enough and equivalent amounts of proteins on each replicates. Proteins were quantified using the micro BCA Protein Assay kit (Thermo Scientific), according to manufacturer's instructions. Next, intracellular glycogen concentrations were quantified using a 250 μl-aliquot of the same stimulated, thawed, and sonicated cell lysate. […] Fluorescence intensity (340 nm excitation/440 nm emission) was measured using a Safire 2 spectrophotometer. […]

Assay [4] concerns G93A SOD1 mouse model of ALS. The assay can be described thus: SOD1 G93A mouse ALS model - grip test. Type of assay: in vivo. The settings on record: vs vehicle. Here is the method: as §1, §2, §3, §4
The test system of assay [5] is primary cultures of cerebrocortical astrocytes. The assay can be described thus: Extracellular lactate quantification (lactate release from primary astrocytes). It is filed as cell-based. The settings on record: primary mouse astrocytes, 90 min. As to the method:
as §5
Secretion of L-lactate was measured in the extracellular medium of 96-well plated astrocytes after 90 min stimulation (at 37° C., in 5% CO2/95% air conditions) with Vehicle (DMSO), the compounds of the invention (100 nM to 100 μM) or positive control. […] To quantify lactate concentrations in the extracellular medium, 200 μl of a 0.2M Glycine-semicarbazide buffer (pH 10) containing 3 mM NAD and 14 U/ml LDH was added to each well of a 96-well plate containing 30 μl aliquots of extracellular medium. […] Fluorescence intensity (340 nm excitation/450 nm emission), which represents the amount of NADH produced, was measured, and lactate concentration values were determined relative to a standard curve of L-lactate concentrations. […]

The subject of assay [6] is cerebral extracellular levels of lactate. The assay can be described thus: In vivo pharmacodynamics - lactate biosensors. Details: species or system mouse. Conditions: 3 h recording, freely moving mice, vs vehicle. Here is the method: as §1, §2
Cerebral extracellular levels of lactate were monitored in vivo using lactate biosensors (Pinnacle Technology), according to the manufacturer's instructions. […] After surgery, mice were monitored closely and received analgesic treatment for at least 4 days. […] Concentrations of cerebral extracellular lactate were calculated from lactate probe electric signals using post-calibration values. […] Area Under the Curve (AUC) of lactate concentration curves were calculated using Graphad Prism and the ratio of AUC after drug over Vehicle administration was calculated.

The source of these data is patent publication US20210275516A1, “LACTATE ENHANCING COMPOUNDS AND USES THEREOF” (ECOLE POLYTECHNIQUE FEDERALE DE LAUSANNE (EPFL), priority 2018, published 2021).

Molecules are shown by their SMILES.

For the compound `COc1cc2ccnc(Nc3ccc(OC(F)(F)F)cc3)c2cc1OC` [Compound 1, 6,7-dimethoxy-N-(4-(trifluoromethoxy)phenyl)isoquinolin-1-amine], in the assay on C57Bl/6 wild-type mice, the “Latency to enter the dark compartment at training” value is on record as “same latencies at training”. For the same compound, in the assay on C57Bl/6 wild-type mice (vs vehicle), the “Latency to enter the dark compartment, 3 weeks after training” value was “significantly higher” and the “Latency to enter the dark compartment, 24 h after training” value is listed as “significantly higher”. Besides, the “Life span (Kaplan-Meier survival)” value in assay [1] is “significantly increased life span”. Moreover, the “Remaining mitochondrial activity at maximum concentration compared to vehicle” value with primary astrocytes [2] is recorded as 8.05%. The “Degradation of intracellular glycogen” value with primary astrocytes [3] was “significantly enhances the degradation of intracellular glycogen”. The “Onset of symptoms (grip test)” value in assay [4] (10 mg/kg orally every day from post-natal day 30, G93A SOD1 mice) is listed as “delayed the onset of the symptoms”. The “Muscle function (grip test)” value in assay [4] (10 mg/kg orally every day from post-natal day 30, measured weekly until 16 weeks of age) is recorded as “remained significantly improved”. Moreover, the “Concentration at which the effect on lactate release is already significant” value in assay [5] is “below 1 μM”. The “Extracellular lactate levels in the brain” value in assay [6] (10 mg/kg per os) is recorded as “significantly increases extracellular lactate levels”. The “Extracellular lactate levels in the brain” value in assay [6] (100 mg/kg per os) is listed as “significantly increases extracellular lactate levels”.
For `COc1cc2ccnc(Nc3ccc(C(F)(F)F)cc3)c2cc1OC` [Compound 2, 6,7-dimethoxy-N-(4-(trifluoromethyl)phenyl)isoquinolin-1-amine], in the assay with primary astrocytes [2], the “Remaining mitochondrial activity at maximum concentration compared to vehicle” value is recorded as 7.86%.
On the same count and under the same terms, to `FC(F)(F)Oc1ccc(Nc2nccc3ccccc23)cc1` [Compound 3, N-(4-(trifluoromethoxy)phenyl)isoquinolin-1-amine] belongs 35.9%; to `COc1cc2ccnc(Cc3ccc(OC(F)(F)F)cc3)c2cc1OC` [Compound 4, 6,7-dimethoxy-1-(4-(trifluoromethoxy)benzyl)isoquinoline], 77.3%.
